Source: patent publication US5308843A, “Method of inhibiting mammalian topoisomerase II and malignant cell growth in mammals, with substituted (S)-3-methyl-7-oxo-2,3-dihydro-7H-pyrido[1,2,3-de][1,4 ]-benzoxazine(and-benzothiazine)-6-carboxylic acids” (Sterling Drug Inc., priority 1990, dated 1994)
Blank lines part the entries; values can stand above or below the compound they belong to.

How the values were obtained:
human topoisomerase II = target: T1, human topoisomerase II (Homo sapiens, UniProt P11388); assay: Mammalian (human) topoisomerase II inhibition assay: topo II-DNA complex stabilisation; assay type: biochemical; details: concentration with activity equal to the EC50 of reference mAMSA; 20 min at 37° C.
T1 construct: Topo II was purified from late log phase suspension cultures of HeLa WIS; endogenous in cells; host or cells: HeLa WIS (late log phase suspension cultures); native enzyme purified in house
Source text: Mammalian Topoisomerase II Inhibition Assay Procedure
The inhibition of human topoisomerase II (hereafter topo II) was quantitated by a procedure adapted from that described by Trask et al., EMBO J., 3, 671-676 (1984). The assay quantitates the amount of topo II covalently complexed by DNA at equilibrium during a topo II reaction. This assay determines the potential of a compound to stabilize this complex, which potential is closely related to the cytotoxicity of the compound.
Topo II was purified from late log phase suspension cultures of HeLa WIS by an adaption of the method described by Per et al., Mol. Pharmacol., 32, 17-25 (1987).
Assays (in duplicate) were assembled at 4° C. Assay mix (25 μl) was distributed in Beckman (No. 265270) 1.5 ml microtitre tubes followed by the addition of 5 μl test compound to yield the final concentrations of assay components:
4 ng 3' end labeled (32p) pBR322 DNA (10^7 DPM/μg)
The assay mix including the test compound was incubated for 20 minutes at 37° C. The reaction was terminated at 37° C. by the addition of 3 μl 10% SDS followed by the addition of 266 μl 10 mM Tris-Cl pH 7.5, 20 μg/ml BSA, 20 μg/ml calf thymus DNA, 1% SDS.
A SDS/protein precipitate was formed by the addition of 28 μl 2.5M KCl followed by chilling on ice for a minimum of 10 minutes. The precipitate was collected and washed with a Brandell cell harvester on a GFB glass fiber filter membrane as follows. The contents of the assay tube were drawn up into the harvester. The tube was then rinsed 7× with 10 mM Tris-Cl pH 7.5, 1 mM EDTA and 100 mM KCl. The precipitate was washed with 1 L of a solution of 10 mM Tris-Cl pH 7.5, 1 mM EDTA, 100 mM KCl followed by 1 L of 95% ethyl alcohol and finally 0.5 L 70% of ethyl alcohol (per 48 samples in each case). After drying, CPM was determined by liquid scintillation counting with 5 ml Biofluor (NEN Research Products) or Readisafe (Beckman Instruments Inc.) cocktail.
Preparation of test compound--A stock solution (6 mg/ml) of test compound was prepared either in 0.1N sodium hydroxide or 0.2N hydrogen chloride. This solution then was diluted 1/5 into water and serially thereafter in either 0.02N sodium hydroxide or 0.04N hydrogen chloride, respectively. The stock solution and serial dilution of the test compound was stored at -20° C. prior to testing.
Screening of test compound--As an initial screen, the test compound was tested at a final concentration of 2, 20 and 200 μg/ml.
Controls--A solvent control which indicates the base level of topo II-DNA complex formed in the absence of the test compound was included in each test. A control, in which topo II was omitted, was included for each test compound at the highest drug concentration tested.
Reference agent--A dose response curve with mAMSA at 0.01, 0.08, 0.16, 0.32, 1.0 and 10 μg/ml was included in each test.
Data reduction--The EC50 (effective concentration at which 50% of the maximal DNA-topo II complex is formed) of a test compound is defined to be the concentration with activity equal to the EC50 of the reference agent, mAMSA. The maximal DNA-topo II complex formed is taken as that equal to that formed at the nearly saturating dose of mAMSA (10 μg/ml).

[1] = tested on: purified eukaryotic topoisomerase II; details: Barrett et al. 1987; cited from earlier work
[2] = tested on: procaryotic and eucaryotic topoisomerase enzymes; details: Jefson et al. 1989; cited from earlier work
[3] = tested on: DNA topoisomerase II from calf thymus; details: Hussy et al. 1986; cited from earlier work
[4] = tested on: topoisomerase II of fetal calf thymus; details: among compared quinolones, Hoshino et al. 1989; cited from earlier work

T1 sequence (P11388 whole entry): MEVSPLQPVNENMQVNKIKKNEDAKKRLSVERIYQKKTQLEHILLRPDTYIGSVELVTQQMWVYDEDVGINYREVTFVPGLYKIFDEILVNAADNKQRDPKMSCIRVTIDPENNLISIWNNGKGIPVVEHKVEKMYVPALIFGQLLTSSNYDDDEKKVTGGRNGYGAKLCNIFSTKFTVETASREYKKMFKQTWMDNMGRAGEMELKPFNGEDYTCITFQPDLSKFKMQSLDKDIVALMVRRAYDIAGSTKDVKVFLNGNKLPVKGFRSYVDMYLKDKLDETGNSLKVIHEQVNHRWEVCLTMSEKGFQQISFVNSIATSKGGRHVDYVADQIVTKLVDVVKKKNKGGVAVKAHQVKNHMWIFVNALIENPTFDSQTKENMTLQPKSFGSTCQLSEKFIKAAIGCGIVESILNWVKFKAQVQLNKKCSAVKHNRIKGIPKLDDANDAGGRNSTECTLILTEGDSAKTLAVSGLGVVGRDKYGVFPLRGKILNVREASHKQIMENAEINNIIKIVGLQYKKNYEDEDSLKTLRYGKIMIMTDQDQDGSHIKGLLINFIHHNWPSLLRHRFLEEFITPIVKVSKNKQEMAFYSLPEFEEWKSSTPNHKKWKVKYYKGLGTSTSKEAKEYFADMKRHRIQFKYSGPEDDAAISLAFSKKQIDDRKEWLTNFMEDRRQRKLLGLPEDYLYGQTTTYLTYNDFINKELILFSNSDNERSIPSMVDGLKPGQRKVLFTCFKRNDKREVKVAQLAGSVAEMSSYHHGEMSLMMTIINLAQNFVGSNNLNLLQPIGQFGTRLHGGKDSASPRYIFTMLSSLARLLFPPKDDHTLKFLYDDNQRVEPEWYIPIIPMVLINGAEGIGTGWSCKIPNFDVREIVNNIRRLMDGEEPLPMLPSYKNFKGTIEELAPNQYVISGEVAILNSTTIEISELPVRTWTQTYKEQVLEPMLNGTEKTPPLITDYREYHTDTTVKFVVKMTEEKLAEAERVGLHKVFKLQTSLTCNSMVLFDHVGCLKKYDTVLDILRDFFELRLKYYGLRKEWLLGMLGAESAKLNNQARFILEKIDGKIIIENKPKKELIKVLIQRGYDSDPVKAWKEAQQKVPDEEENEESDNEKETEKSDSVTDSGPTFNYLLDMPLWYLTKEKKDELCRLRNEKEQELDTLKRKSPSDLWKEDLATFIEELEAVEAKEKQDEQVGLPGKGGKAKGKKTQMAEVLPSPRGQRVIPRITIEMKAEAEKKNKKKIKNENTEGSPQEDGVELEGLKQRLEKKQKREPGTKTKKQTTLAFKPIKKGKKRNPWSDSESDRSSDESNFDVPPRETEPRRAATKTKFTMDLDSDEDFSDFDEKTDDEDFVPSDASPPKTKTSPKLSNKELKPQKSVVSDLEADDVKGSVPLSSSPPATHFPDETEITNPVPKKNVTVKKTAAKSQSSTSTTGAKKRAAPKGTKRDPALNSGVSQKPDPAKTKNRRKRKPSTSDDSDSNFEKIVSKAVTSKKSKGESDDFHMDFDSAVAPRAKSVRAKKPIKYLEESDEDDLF

EC50 (human topoisomerase II): 57 µM
Compound: C[C@H]1COc2c(-c3ccncc3)c(F)cc3c(=O)c(C(=O)O)cn1c23 [1(b), (S)-10-(4-Pyridinyl)-9-fluoro-2,3-dihydro-3-methyl-7-oxo-7H-pyrido[1,2,3-de][1,4]benzoxazine-6-carboxylic acid]

EC50 (human topoisomerase II): 92 µM
Compound: CCc1cc(-c2c(F)cc3c(=O)c(C(=O)O)cn4c3c2OC[C@@H]4C)ccn1 [3(c), (S)-10-(2-Ethyl-4-pyridinyl)-9-fluoro-2,3-dihydro-3-methyl-7-oxo-7H-pyrido[1,2,3-de][1,4]benzoxazine-6-carboxylic acid]

Compound: CCn1cc(C(=O)O)c(=O)c2cc(F)c(-c3ccncc3)c(F)c21 [CP-67,015, 6,8-difluoro-1-ethyl-7-(4-pyridyl)-1,4-dihydro-4-oxo-3-quinolinecarboxylic acid]
enhancement/induction of DNA cleavage mediated by topoisomerase II (in words) [1]: induced significant DNA cleavage in both the radiolabeled and cold cleavage assays

EC50 (human topoisomerase II): 68 µM
Compound: CCc1cc(-c2c(F)cc3c(=O)c(C(=O)O)cn4c3c2OC[C@@H]4C)cc(C)n1 [Example 2(d), (S)-10-(2-Ethyl-6-methyl-4-pyridinyl)-9-fluoro-2,3-dihydro-3-methyl-7-oxo-7H-pyrido[1,2,3-de][1,4]benzoxazine-6-carboxylic acid]

EC50 (human topoisomerase II): 62 µM
Compound: Cc1cc(-c2c(F)cc3c(=O)c(C(=O)O)cn4c3c2[S@@+]([O-])CC4C)cc(C)n1 (stereo partly drawn) [Example 4, (S)-10-(2,6-Dimethyl-4-pyridinyl)-9-fluoro-3-methyl-7-oxo-2,3-dihydro-7H-pyrido[1,2,3-de][1,4]benzothiazine-6-carboxylic acid 1-oxide]

EC50 (human topoisomerase II): 50 µM
Compound: Cc1cc(-c2c(F)c(F)c3c(=O)c(C(=O)O)cn4c3c2OC[C@@H]4C)cc(C)n1 [Example 6, (S)-10-(2,6-Dimethyl-4-pyridinyl)-8,9-difluoro-3-methyl-7-oxo-2,3-dihydro-7H-pyrido[1,2,3-de][1,4]benzoxazine-6-carboxylic acid]

EC50 (human topoisomerase II): 31 µM
Compound: Cc1cc(-c2c(F)cc3c(=O)c(C(=O)O)cn4c3c2OC[C@@H]4C)cc(C)n1 [Example 7, (S)-10-(2,6-Dimethyl-4-pyridinyl)-9-fluoro-3-methyl-7-oxo-2,3-dihydro-7H-pyrido[1,2,3-de][1,4]benzoxazine-6-carboxylic acid]

Compound: C[C@H]1COc2c(-c3ccncc3)c(F)cc3c(=O)c(C(=O)O)cn1c23 [S-(-)-CP-92,121, (S)-9-fluoro-3-methyl-10-(4-pyridyl)-7-oxo-7H-pyrido[1,2,3-de][1,4]benzoxazine-6-carboxylic acid]
combined activity against procaryotic and eucaryotic topoisomerase enzymes (in words) [2]: combined potent activity

Compound: C[C@H]1COc2c(-c3ccc4ncccc4c3)c(F)cc3c(=O)c(C(=O)O)cn1c23 [S-(-)-CP-100,964, (S)-9-fluoro-3-methyl-10-(6-quinolyl)-7-oxo-7H-pyrido[1,2,3-de][1,4]benzoxazine-6-carboxylic acid]
combined activity against procaryotic and eucaryotic topoisomerase enzymes (in words) [2]: combined potent activity

Compound: O=C(O)c1cn(C2CC2)c2cc(N3CCNCC3)c(F)cc2c1=O [ciprofloxacin, 1-cycloproyl-6-fluoro-7-(1-piperazinyl)-1,4-dihydro-4-oxo-3-quinolinecarboxylic acid]
Ki values of 50% inhibition [3]: 150 µg/mL

Compound: CCn1cc(C(=O)O)c(=O)c2cc(F)c(N3CCNCC3)cc21 [norfloxacin, 1-ethyl-6-fluoro-7-(1-piperazinyl)-1,4-dihydro-4-oxo-3-quinolinecarboxylic acid]
Ki values of 50% inhibition [3]: 300 µg/mL | enhancement/induction of DNA cleavage mediated by topoisomerase II (in words) [1]: not to be potent enhancers of DNA cleavage mediated by topoisomerase II

Compound: CC1COc2c(N3CCN(C)CC3)c(F)cc3c(=O)c(C(=O)O)cn1c23 (centres unmarked) [ofloxacin, 9-fluoro-3-methyl-10-(4-methyl-1-piperazinyl)-7-oxo-2,3-dihydro-7H-pyrido[1,2,3-de][1,4]benzoxazine-6-carboxylic acid]
potency of inhibition of topoisomerase II (in words) [4]: lowest | Ki values of 50% inhibition [3]: 1300 µg/mL
